Reference: patent US8278345B2, “Inhibitors of glutaminyl cyclase” (Probiodrug AG, priority 2006, dated 2012)
Read-outs that look alike come from different tables or passages of the source.

Target: hQC (Homo sapiens, UniProt Q16769)
Assay: Inhibitor assay for glutaminyl cyclase activity (fluorometric, H-Gln-βNA / H-Gln-AMC)
Assay type: biochemical
In short: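 Coupled fluorometric assay at 30 °C with pyroglutamyl aminopeptidase, in Tris/HCl pH 8.0 with EDTA, substrate H-Gln-βNA (0.2 mM; ex/em 320/410 nm) or H-Gln-AMC (ex/em 380/460 nm), initiated by QC. Screening: 4 mM inhibitor, substrate at 1 KM; Ki from progress curves fitted to competitive inhibition.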

Chain of hQC (Q16769 29-361): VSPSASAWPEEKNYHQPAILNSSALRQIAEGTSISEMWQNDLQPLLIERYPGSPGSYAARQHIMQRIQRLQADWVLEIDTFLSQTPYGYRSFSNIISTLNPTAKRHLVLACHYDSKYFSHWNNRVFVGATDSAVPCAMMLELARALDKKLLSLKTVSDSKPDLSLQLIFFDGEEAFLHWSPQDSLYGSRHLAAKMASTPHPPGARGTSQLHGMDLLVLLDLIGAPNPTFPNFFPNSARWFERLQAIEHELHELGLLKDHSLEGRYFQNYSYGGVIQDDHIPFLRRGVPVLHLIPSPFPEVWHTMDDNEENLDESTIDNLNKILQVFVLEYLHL

SMILES	IC50 (read-out: IC50) [nM]	IC50 (compound from preparative synthesis, purified, read-out: IC50 hQC) [nM]
CC(C)(C)C(=O)C1=C(O)C(=O)N(c2ccc3[nH]cnc3c2)C1c1cc[nH]n1 (stereo not shown) [Compound 405, 1-(1H-Benzoimidazol-5-yl)-4-(2,2-dimethyl-propionyl)-3-hydroxy-5-(1H-pyrazol-3-yl)-1,5-dihydro-pyrrol-2-one]	2200	
CCC1=C(O)C(=O)N(c2ccc3[nH]cnc3c2)C1c1ccc(N2CCCC2)cc1 (stereo not shown) [Compound 406, 1-(1H-Benzoimidazol-5-yl)-4-ethyl-3-hydroxy-5-(4-pyrrolidin-1-yl-phenyl)-1,5-dihydro-pyrrol-2-one]	8320	
CC1=C(O)C(=O)N(c2ccc3[nH]cnc3c2)C1c1cc(F)cc(F)c1F (stereo not shown) [Compound 407, 1-(1H-Benzoimidazol-5-yl)-3-hydroxy-4-methyl-5-(2,3,5-trifluoro-phenyl)-1,5-dihydro-pyrrol-2-one]	220	
O=C(O)CC1=C(O)C(=O)N(c2ccc3[nH]cnc3c2)C1c1csc2ccccc12 (stereo not shown) [Compound 408, [2-Benzo[b]thiophen-3-yl-1-(1H-benzoimidazol-5-yl)-4-hydroxy-5-oxo-2,5-dihydro-1H-pyrrol-3-yl]-acetic acid]	6430	
O=C1C(O)=C(c2c[nH]c3ccccc23)C(c2ccc(CO)o2)N1c1ccc2[nH]cnc2c1 (stereo not shown) [Compound 409, 1-(1H-Benzoimidazol-5-yl)-3-hydroxy-5-(5-hydroxymethyl-furan-2-yl)-4-(1H-indol-3-yl)-1,5-dihydro-pyrrol-2-one]	670	
CC(=O)C1=C(O)C(=O)N(c2ccc3[nH]cnc3c2)C1c1ccc(C(=O)O)o1 (stereo not shown) [Compound 410, 5-[3-Acetyl-1-(1H-benzoimidazol-5-yl)-4-hydroxy-5-oxo-2,5-dihydro-1H-pyrrol-2-yl]-furan-2-carboxylic acid]	1030	
CCCCCC(=O)C1=C(O)C(=O)N(c2ccc3[nH]cnc3c2)C1c1cccc(C)c1 (stereo not shown) [Compound 411, 1-(1H-Benzoimidazol-5-yl)-4-hexanoyl-3-hydroxy-5-m-tolyl-1,5-dihydro-pyrrol-2-one]	1390	
CC1=C(O)C(=O)N(c2ccc3[nH]cnc3c2)C1c1c(F)ccc(Cl)c1F (stereo not shown) [Compound 412, 1-(1H-Benzoimidazol-5-yl)-5-(3-chloro-2,6-difluoro-phenyl)-3-hydroxy-4-methyl-1,5-dihydro-pyrrol-2-one]	4180	
CC(C)CC(=O)C1=C(O)C(=O)N(c2ccc3[nH]cnc3c2)C1c1ccco1 (stereo not shown) [Compound 413, 1-(1H-Benzoimidazol-5-yl)-5-furan-2-yl-3-hydroxy-4-(3-methyl-butyryl)-1,5-dihydro-pyrrol-2-one]	1480	
CC(=O)C1=C(O)C(=O)N(c2ccc3[nH]cnc3c2)C1c1cc(Br)c(O)c(Br)c1 (stereo not shown) [Compound 414, 4-Acetyl-1-(1H-benzoimidazol-5-yl)-5-(3,5-dibromo-4-hydroxy-phenyl)-3-hydroxy-1,5-dihydro-pyrrol-2-one]	2380	
CC(=O)C1=C(O)C(=O)N(c2ccc3[nH]cnc3c2)C1c1ccc(C)o1 (stereo not shown) [Compound 415, 4-Acetyl-1-(1H-benzoimidazol-5-yl)-3-hydroxy-5-(5-methyl-furan-2-yl)-1,5-dihydro-pyrrol-2-one]	1390	
CC1=C(O)C(=O)N(c2ccc3[nH]cnc3c2)C1c1cccc(C)c1 (stereo not shown) [Compound 416, 1-(1H-Benzoimidazol-5-yl)-3-hydroxy-4-methyl-5-m-tolyl-1,5-dihydro-pyrrol-2-one]	9940	
CC1=C(O)C(=O)N(c2ccc3[nH]cnc3c2)C1c1cc(C)ccc1C (stereo not shown) [Compound 417, 1-(1H-Benzoimidazol-5-yl)-5-(2,5-dimethyl-phenyl)-3-hydroxy-4-methyl-1,5-dihydro-pyrrol-2-one]	9130	
O=C(C1=C(O)C(=O)N(c2ccc3[nH]cnc3c2)C1c1ccc(CO)o1)C1CC1 (stereo not shown) [Compound 418, 1-(1H-Benzoimidazol-5-yl)-4-cyclopropanecarbonyl-3-hydroxy-5-(5-hydroxymethyl-furan-2-yl)-1,5-dihydro-pyrrol-2-one]	310	
CC(C)(C)C(=O)C1=C(O)C(=O)N(c2ccc3[nH]cnc3c2)C1c1ccco1 (stereo not shown) [Compound 419, 1-(1H-Benzoimidazol-5-yl)-4-(2,2-dimethyl-propionyl)-5-furan-2-yl-3-hydroxy-1,5-dihydro-pyrrol-2-one]	4090	
O=C1C(O)=C(c2c[nH]c3ccccc23)C(c2cnc3ccccc3c2)N1c1ccc2[nH]cnc2c1 (stereo not shown) [Compound 422, 1-(1H-Benzoimidazol-5-yl)-3-hydroxy-4-(1H-indol-3-yl)-5-quinolin-3-yl-1,5-dihydro-pyrrol-2-one]	4	575
CC(C)CC(=O)C1=C(O)C(=O)N(c2ccc3[nH]cnc3c2)C1c1c(F)c(F)cc(F)c1F (stereo not shown) [Compound 423, 1-(1H-Benzoimidazol-5-yl)-3-hydroxy-4-(3-methyl-butyryl)-5-(2,3,5,6-tetrafluoro-phenyl)-1,5-dihydro-pyrrol-2-one]	40	
CCCC(=O)C1=C(O)C(=O)N(c2ccc3[nH]cnc3c2)C1c1ccsc1 (stereo not shown) [Compound 424, 1-(1H-Benzoimidazol-5-yl)-4-butyryl-3-hydroxy-5-thiophen-3-yl-1,5-dihydro-pyrrol-2-one]	850	

SMILES	IC50 (read-out: IC50) [nM]	IC50 (compound from preparative synthesis, purified, read-out: IC50 hQC) [nM]
CCCC(=O)C1=C(O)C(=O)N(c2ccc3[nH]cnc3c2)C1C1CCOC1 (stereo not shown) [Compound 425, 1-(1H-Benzoimidazol-5-yl)-4-butyryl-3-hydroxy-5-(tetrahydro-furan-3-yl)-1,5-dihydro-pyrrol-2-one]	1840	
CC1=C(O)C(=O)N(c2ccc3[nH]cnc3c2)C1c1ccco1 (stereo not shown) [Compound 426, 1-(1H-Benzoimidazol-5-yl)-5-furan-2-yl-3-hydroxy-4-methyl-1,5-dihydro-pyrrol-2-one]	4	
CC(C)CC(=O)C1=C(O)C(=O)N(c2ccc3[nH]cnc3c2)C1c1cc[nH]n1 (stereo not shown) [Compound 427, 1-(1H-Benzoimidazol-5-yl)-3-hydroxy-4-(3-methyl-butyryl)-5-(1H-pyrazol-3-yl)-1,5-dihydro-pyrrol-2-one]	7960	
CCC1=C(O)C(=O)N(c2ccc3[nH]cnc3c2)C1c1coc2ccc(C)cc2c1=O (stereo not shown) [Compound 428, 1-(1H-Benzoimidazol-5-yl)-4-ethyl-3-hydroxy-5-(6-methyl-4-oxo-4H-chromen-3-yl)-1,5-dihydro-pyrrol-2-one]	40	
Cc1cccc(C2C(c3ccc(O)cc3)=C(O)C(=O)N2c2ccc3[nH]cnc3c2)c1 (stereo not shown) [Compound 429, 1-(1H-Benzoimidazol-5-yl)-3-hydroxy-4-(4-hydroxy-phenyl)-5-m-tolyl-1,5-dihydro-pyrrol-2-one]	1390	
Cc1cccc(C2C(C(C)C)=C(O)C(=O)N2c2ccc3[nH]cnc3c2)n1 (stereo not shown) [Compound 430, 1-(1H-Benzoimidazol-5-yl)-3-hydroxy-4-isopropyl-5-(6-methyl-pyridin-2-yl)-1,5-dihydro-pyrrol-2-one]	9490	
CCC1=C(O)C(=O)N(c2ccc3[nH]cnc3c2)C1c1ccc2nonc2c1 (stereo not shown) [Compound 431, 1-(1H-Benzoimidazol-5-yl)-5-(benzo[c][1,2,5]oxadiazol-5-yl)-4-ethyl-3-hydroxy-1,5-dihydro-pyrrol-2-one]	2110	
CCCC(=O)C1=C(O)C(=O)N(c2ccc3[nH]cnc3c2)C1c1ccc(CO)o1 (stereo not shown) [Compound 432, 1-(1H-Benzoimidazol-5-yl)-4-butyryl-3-hydroxy-5-(5-hydroxymethyl-furan-2-yl)-1,5-dihydro-pyrrol-2-one]	2650	
CC(=O)C1=C(O)C(=O)N(c2ccc3[nH]cnc3c2)C1c1cc(C)c(C)o1 (stereo not shown) [Compound 433, 4-Acetyl-1-(1H-benzoimidazol-5-yl)-5-(4,5-dimethyl-furan-2-yl)-3-hydroxy-1,5-dihydro-pyrrol-2-one]	1210	
Cc1cccc(C2C(c3cccc(O)c3)=C(O)C(=O)N2c2ccc3[nH]cnc3c2)c1 (stereo not shown) [Compound 434, 1-(1H-Benzoimidazol-5-yl)-3-hydroxy-4-(3-hydroxy-phenyl)-5-m-tolyl-1,5-dihydro-pyrrol-2-one]	3640	
O=C(C1=C(O)C(=O)N(c2ccc3[nH]cnc3c2)C1c1ncc[nH]1)C1CCCCC1 (stereo not shown) [Compound 435, 1-(1H-Benzoimidazol-5-yl)-4-cyclohexanecarbonyl-3-hydroxy-5-(1H-imidazol-2-yl)-1,5-dihydro-pyrrol-2-one]	6970	
CC1=C(O)C(=O)N(c2ccc3[nH]cnc3c2)C1c1c[nH]c2cc(C)ccc12 (stereo not shown) [Compound 436, 1-(1H-Benzoimidazol-5-yl)-3-hydroxy-4-methyl-5-(6-methyl-1H-indol-3-yl)-1,5-dihydro-pyrrol-2-one]	490	
O=C1C(O)=C(c2c[nH]c3ccccc23)C(c2ccc(O)c(Br)c2)N1c1ccc2[nH]cnc2c1 (stereo not shown) [Compound 438, 1-(1H-Benzoimidazol-5-yl)-5-(3-bromo-4-hydroxy-phenyl)-3-hydroxy-4-(1H-indol-3-yl)-1,5-dihydro-pyrrol-2-one]	580	
CCC1C(C(C)=O)=C(O)C(=O)N1c1ccc2[nH]cnc2c1 (stereo not shown) [Compound 439, 4-Acetyl-1-(1H-benzoimidazol-5-yl)-5-ethyl-3-hydroxy-1,5-dihydro-pyrrol-2-one]	2740	
O=C(C1=C(O)C(=O)N(c2ccc3[nH]cnc3c2)C1)C1CCCCC1 [Compound 441, 1-(1H-Benzoimidazol-5-yl)-4-cyclohexanecarbonyl-3-hydroxy-1,5-dihydro-pyrrol-2-one]	850	
CC(C)(C)C(=O)C1=C(O)C(=O)N(c2ccc3[nH]cnc3c2)C1c1c(F)c(F)cc(F)c1F (stereo not shown) [Compound 442, 1-(1H-Benzoimidazol-5-yl)-4-(2,2-dimethyl-propionyl)-3-hydroxy-5-(2,3,5,6-tetrafluoro-phenyl)-1,5-dihydro-pyrrol-2-one]	8590	
O=C(C1=C(O)C(=O)N(c2ccc3[nH]cnc3c2)C1c1cccc2cccnc12)C1CC1 (stereo not shown) [Compound 443, 1-(1H-Benzoimidazol-5-yl)-4-cyclopropanecarbonyl-3-hydroxy-5-quinolin-8-yl-1,5-dihydro-pyrrol-2-one]	4630	
CC(=O)C1=C(O)C(=O)N(c2ccc3[nH]cnc3c2)C1c1cc[nH]n1 (stereo not shown) [Compound 444, 4-Acetyl-1-(1H-benzoimidazol-5-yl)-3-hydroxy-5-(1H-pyrazol-3-yl)-1,5-dihydro-pyrrol-2-one]	6880	
